Here are results for 36 molecules from US10246426B2, “Triazole compounds as T-type calcium channel blockers” (IDORSIA PHARMACEUTICALS LTD, priority 2014, dated 2019).

pIC50: −log10 of the molar value.

In this assay the target is Cav3.2 (Homo sapiens, UniProt O95180). Kind of assay: Calcium flux FLIPR assay, HEK293 cells recombinantly expressing Cav3.2. Type of assay: cell-based. The settings on record: Cav3.2-channel, Ca2+ entry stimulated by 10 mM CaCl2. An outline of the steps: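 Fluo-4-loaded HEK293 cells stably expressing Cav3.2, seeded overnight at 37 °C; compounds diluted in TEAC buffer (pH 7.2) and preincubated 3 min before Ca2+ entry triggered with CaCl2 at 10 mM final. Area under FLIPR fluorescence trace fitted sigmoidally; IC50 relative to vehicle signal.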
Sequence of Cav3.2 (O95180 whole entry, looked up): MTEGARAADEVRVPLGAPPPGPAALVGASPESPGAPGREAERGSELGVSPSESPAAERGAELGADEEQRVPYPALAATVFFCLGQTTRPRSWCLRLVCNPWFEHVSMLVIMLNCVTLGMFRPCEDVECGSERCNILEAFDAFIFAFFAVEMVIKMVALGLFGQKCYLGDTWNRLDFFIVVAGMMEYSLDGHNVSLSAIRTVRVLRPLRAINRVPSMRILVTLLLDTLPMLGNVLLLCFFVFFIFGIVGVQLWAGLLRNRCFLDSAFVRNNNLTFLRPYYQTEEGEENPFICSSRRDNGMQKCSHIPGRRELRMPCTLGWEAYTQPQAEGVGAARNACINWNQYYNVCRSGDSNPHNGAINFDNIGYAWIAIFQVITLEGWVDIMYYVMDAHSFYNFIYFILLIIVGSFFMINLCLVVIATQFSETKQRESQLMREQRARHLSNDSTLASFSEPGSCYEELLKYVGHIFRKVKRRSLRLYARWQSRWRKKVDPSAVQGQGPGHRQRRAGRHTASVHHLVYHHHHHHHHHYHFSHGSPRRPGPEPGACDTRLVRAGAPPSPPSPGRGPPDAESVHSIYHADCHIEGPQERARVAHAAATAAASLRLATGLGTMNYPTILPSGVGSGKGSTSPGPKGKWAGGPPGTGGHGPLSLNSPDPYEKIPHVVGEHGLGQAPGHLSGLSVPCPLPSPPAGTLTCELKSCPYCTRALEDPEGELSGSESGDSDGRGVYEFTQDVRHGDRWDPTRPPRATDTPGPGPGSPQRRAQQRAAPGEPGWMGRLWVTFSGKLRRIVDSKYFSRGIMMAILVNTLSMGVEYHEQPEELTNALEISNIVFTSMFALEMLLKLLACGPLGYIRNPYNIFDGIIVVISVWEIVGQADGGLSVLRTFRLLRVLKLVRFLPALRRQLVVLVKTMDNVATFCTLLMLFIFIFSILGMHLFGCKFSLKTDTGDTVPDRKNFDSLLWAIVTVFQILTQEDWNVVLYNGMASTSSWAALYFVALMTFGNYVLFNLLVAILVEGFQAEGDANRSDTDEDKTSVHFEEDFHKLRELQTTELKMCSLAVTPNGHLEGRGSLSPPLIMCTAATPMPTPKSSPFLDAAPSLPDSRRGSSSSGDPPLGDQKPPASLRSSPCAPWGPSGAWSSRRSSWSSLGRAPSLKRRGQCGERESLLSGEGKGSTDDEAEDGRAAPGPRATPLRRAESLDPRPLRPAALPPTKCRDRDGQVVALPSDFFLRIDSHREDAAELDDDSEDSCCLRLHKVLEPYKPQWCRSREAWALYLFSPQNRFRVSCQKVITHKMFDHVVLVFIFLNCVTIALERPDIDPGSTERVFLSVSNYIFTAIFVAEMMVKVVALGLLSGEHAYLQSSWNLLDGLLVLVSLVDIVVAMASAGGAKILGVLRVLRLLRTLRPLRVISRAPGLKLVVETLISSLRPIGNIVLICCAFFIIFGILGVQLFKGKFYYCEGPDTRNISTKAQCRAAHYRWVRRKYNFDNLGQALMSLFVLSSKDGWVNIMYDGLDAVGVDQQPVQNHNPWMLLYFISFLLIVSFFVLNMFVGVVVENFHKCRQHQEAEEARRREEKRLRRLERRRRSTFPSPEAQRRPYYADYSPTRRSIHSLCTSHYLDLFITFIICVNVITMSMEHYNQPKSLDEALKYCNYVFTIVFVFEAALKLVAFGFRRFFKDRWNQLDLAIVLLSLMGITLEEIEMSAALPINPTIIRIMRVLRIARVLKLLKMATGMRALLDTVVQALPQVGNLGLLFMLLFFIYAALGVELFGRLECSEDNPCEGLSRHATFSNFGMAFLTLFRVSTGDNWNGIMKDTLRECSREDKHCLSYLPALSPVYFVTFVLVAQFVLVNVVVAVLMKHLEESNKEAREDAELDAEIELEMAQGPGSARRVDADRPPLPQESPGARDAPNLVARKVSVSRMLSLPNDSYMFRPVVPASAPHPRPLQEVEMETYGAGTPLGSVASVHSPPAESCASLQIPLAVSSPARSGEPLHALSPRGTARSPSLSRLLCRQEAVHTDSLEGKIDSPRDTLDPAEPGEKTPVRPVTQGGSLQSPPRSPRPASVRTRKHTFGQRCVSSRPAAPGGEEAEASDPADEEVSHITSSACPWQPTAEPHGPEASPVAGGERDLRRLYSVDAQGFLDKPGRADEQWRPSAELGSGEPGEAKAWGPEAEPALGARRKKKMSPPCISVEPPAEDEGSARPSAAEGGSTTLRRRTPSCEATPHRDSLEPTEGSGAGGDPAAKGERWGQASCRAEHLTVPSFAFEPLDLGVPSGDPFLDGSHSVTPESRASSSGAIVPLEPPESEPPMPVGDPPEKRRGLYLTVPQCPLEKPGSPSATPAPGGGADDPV
For `CC(C)(C#N)c1ccc(CC(=O)Nc2cnn(Cc3ccc(C#N)c(F)c3)n2)cc1` [Example 157, 2-[4-(Cyano-dimethyl-methyl)-phenyl]-N-[2-(4-cyano-3-fluoro-benzyl)-2H-[1,2,3]triazol-4-yl]-acetamide], the pIC50 was 7.51.

Consider `COc1cc(Cn2ncc(NC(=O)Cc3ccc(C(C)C)cc3)n2)cc(F)c1F` [Example 222, N-[2-(3,4-Difluoro-5-methoxy-benzyl)-2H-[1,2,3]triazol-4-yl]-2-(4-isopropyl-phenyl)-acetamide], for which the negative-log IC50 (pIC50) was 6.52.

With `COc1cc(Cn2ncc(NC(=O)Cc3ccc(C(C)(C)C)cc3)n2)cc(F)c1C#N` [Example 158, 2-(4-tert-Butyl-phenyl)-N-[2-(4-cyano-3-fluoro-5-methoxy-benzyl)-2H-[1,2,3]triazol-4-yl]-acetamide], the negative logarithm of the IC50 (pIC50) is 6.62.

Take `Cc1ccc(Cn2ncc(NC(=O)Cc3ccc(C(C)C)cc3)n2)cc1` [Example 24, 2-(4-Isopropyl-phenyl)-N-[2-(4-methyl-benzyl)-2H-[1,2,3]triazol-4-yl]-acetamide]: the pIC50 was 7.43.

For the molecule `COc1ccc(Cn2ncc(NC(=O)Cc3ccc4c(ccn4C)c3)n2)cc1` [Example 57, N-[2-(4-Methoxy-benzyl)-2H-[1,2,3]triazol-4-yl]-2-(1-methyl-1H-indol-5-yl)-acetamide], the negative logarithm of the IC50 (pIC50) is 7.42.

In the case of `N#Cc1ccc(Cn2ncc(NC(=O)Cc3ccc(C(F)(F)F)cc3)n2)cc1F` [Example 159, N-[2-(4-Cyano-3-fluoro-benzyl)-2H-[1,2,3]triazol-4-yl]-2-(4-trifluoromethyl-phenyl)-acetamide], the pIC50 is 7.21.

For `COc1cc(Cn2ncc(NC(=O)Cc3ccc(C(C)C)cc3)n2)ccc1F` [Example 153, N-[2-(4-Fluoro-3-methoxy-benzyl)-2H-[1,2,3]triazol-4-yl]-2-(4-isopropyl-phenyl)-acetamide], the pIC50 is 7.15.

`COc1c(F)cc(Cn2ncc(NC(=O)Cc3ccc(OCC4(C)COC4)cc3)n2)cc1F` [Example 144, N-[2-(3,5-Difluoro-4-methoxy-benzyl)-2H-[1,2,3]triazol-4-yl]-2-[4-(3-methyl-oxetan-3-ylmethoxy)-phenyl]-acetamide]: the negative logarithm of the IC50 (pIC50) was 7.25.

`COc1cc(Cn2ncc(NC(=O)Cc3ccc(C4(F)COC4)cc3)n2)ccc1F` [Example 116, N-[2-(4-Fluoro-3-methoxy-benzyl)-2H-[1,2,3]triazol-4-yl]-2-[4-(3-fluoro-oxetan-3-yl)-phenyl]-acetamide]: the negative logarithm of the IC50 (pIC50) is 6.85.

Take `CCn1ncc2cc(CC(=O)Nc3cnn(Cc4cc(F)c(F)c(OC)c4)n3)ccc21` [Example 220, N-[2-(3,4-Difluoro-5-methoxy-benzyl)-2H-[1,2,3]triazol-4-yl]-2-(1-ethyl-1H-indazol-5-yl)-acetamide]: the pIC50 was 6.72.

For `Cc1cc(Cn2ncc(NC(=O)Cc3ccc(C(C)C)cc3)n2)ccc1C#N` [Example 165, N-[2-(4-Cyano-3-methyl-benzyl)-2H-[1,2,3]triazol-4-yl]-2-(4-isopropyl-phenyl)-acetamide], the pIC50 is 7.74.

Take `Cc1cc(Cn2ncc(NC(=O)Cc3ccc4c(c3)c(C)nn4C)n2)ccc1C#N` [Example 169, N-[2-(4-Cyano-3-methyl-benzyl)-2H-[1,2,3]triazol-4-yl]-2-(1,3-dimethyl-1H-indazol-5-yl)-acetamide]: the negative-log IC50 (pIC50) was 7.02.

For `COc1c(F)cc(Cn2ncc(NC(=O)Cc3ccc(N4CCCC4)nc3)n2)cc1F` [Example 81, N-[2-(3,5-Difluoro-4-methoxy-benzyl)-2H-[1,2,3]triazol-4-yl]-2-(6-pyrrolidin-1-yl-pyridin-3-yl)-acetamide], the negative-log IC50 (pIC50) is 7.55.

For the molecule `COc1cc(Cn2ncc(NC(=O)Cc3ccc(N4CCCC4)nc3)n2)cc(F)c1F` [Example 221, N-[2-(3,4-Difluoro-5-methoxy-benzyl)-2H-[1,2,3]triazol-4-yl]-2-(6-pyrrolidin-1-yl-pyridin-3-yl)-acetamide], the pIC50 is 6.80.

As for `N#Cc1ccc(Cn2ncc(NC(=O)Cc3ccc(C4(C#N)CC4)cc3)n2)cc1F` [Example 231, 2-[4-(1-Cyano-cyclopropyl)-phenyl]-N-[2-(4-cyano-3-fluoro-benzyl)-2H-[1,2,3]triazol-4-yl]-acetamide], the pIC50 is 7.44.

In the case of `Cc1ccc(Cn2ncc(NC(=O)Cc3ccc(C(C)C)cc3)n2)cc1C#N` [Example 216, N-[2-(3-Cyano-4-methyl-benzyl)-2H-[1,2,3]triazol-4-yl]-2-(4-isopropyl-phenyl)-acetamide], the negative-log IC50 (pIC50) is 7.13.

With `CCOc1ccc(Cn2ncc(NC(=O)Cc3ccc(N4CCCC4)nc3)n2)cc1` [Example 45, N-[2-(4-Ethoxy-benzyl)-2H-[1,2,3]triazol-4-yl]-2-(6-pyrrolidin-1-yl-pyridin-3-yl)-acetamide], the negative logarithm of the IC50 (pIC50) was 7.49.

For the molecule `COc1ccc(Cn2ncc(NC(=O)Cc3ccc(C(C)C)cc3)n2)cc1OC` [Example 50, N-[2-(3,4-Dimethoxy-benzyl)-2H-[1,2,3]triazol-4-yl]-2-(4-isopropyl-phenyl)-acetamide], the pIC50 was 6.80.

Take `COc1cc(Cn2ncc(NC(=O)Cc3ccc(C(C)(C)C)cc3)n2)ccc1F` [Example 119, 2-(4-tert-Butyl-phenyl)-N-[2-(4-fluoro-3-methoxy-benzyl)-2H-[1,2,3]triazol-4-yl]-acetamide]: the negative logarithm of the IC50 (pIC50) is 7.21.

On to `Cc1ccc(Cn2ncc(NC(=O)Cc3ccc(C(C)(C)C)cc3)n2)cc1` [Example 66, 2-(4-tert-Butyl-phenyl)-N-[2-(4-methyl-benzyl)-2H-[1,2,3]triazol-4-yl]-acetamide], for which the negative-log IC50 (pIC50) is 7.15.

For the molecule `CC(C)c1ccc(CC(=O)Nc2cnn(Cc3ccc(C#N)cc3)n2)cc1` [Example 26, N-[2-(4-Cyano-benzyl)-2H-[1,2,3]triazol-4-yl]-2-(4-isopropyl-phenyl)-acetamide], the pIC50 is 7.72.

As to `O=C(Cc1ccc(OC2CC2)cc1)Nc1cnn(Cc2ccc(F)c(F)c2)n1` [Example 10, 2-(4-Cyclopropoxy-phenyl)-N-[2-(3,4-difluoro-benzyl)-2H-[1,2,3]triazol-4-yl]-acetamide], the negative logarithm of the IC50 (pIC50) is 7.64.

For the molecule `CC(C)n1ncc2cc(CC(=O)Nc3cnn(Cc4ccc(F)c(F)c4)n3)ccc21` [Example 33, N-[2-(3,4-Difluoro-benzyl)-2H-[1,2,3]triazol-4-yl]-2-(1-isopropyl-1H-indazol-5-yl)-acetamide], the negative-log IC50 (pIC50) was 7.62.

For the molecule `CN(C)c1ccc(CC(=O)Nc2cnn(Cc3ccc(F)cc3)n2)cc1` [Example 2, 2-(4-Dimethylamino-phenyl)-N-[2-(4-fluoro-benzyl)-2H-[1,2,3]triazol-4-yl]-acetamide], the negative-log IC50 (pIC50) was 7.77.

In the case of `Cn1ccc2cc(CC(=O)Nc3cnn(Cc4ccc(F)cc4)n3)ccc21` [Example 52, N-[2-(4-Fluoro-benzyl)-2H-[1,2,3]triazol-4-yl]-2-(1-methyl-1H-indol-5-yl)-acetamide], the negative-log IC50 (pIC50) was 7.92.

In the case of `COc1cc(Cn2ncc(NC(=O)Cc3ccc(OCC4(F)COC4)cc3)n2)cc(F)c1F` [Example 229, N-[2-(3,4-Difluoro-5-methoxy-benzyl)-2H-[1,2,3]triazol-4-yl]-2-[4-(3-fluoro-oxetan-3-ylmethoxy)-phenyl]-acetamide], the pIC50 is 6.89.

With `COc1cc(Cn2ncc(NC(=O)Cc3ccc4c(cnn4C)c3)n2)ccc1F` [Example 151, N-[2-(4-Fluoro-3-methoxy-benzyl)-2H-[1,2,3]triazol-4-yl]-2-(1-methyl-1H-indazol-5-yl)-acetamide], the pIC50 was 7.14.

Consider `COc1c(F)cc(Cn2ncc(NC(=O)Cc3ccc(C4(F)COC4)cc3)n2)cc1F` [Example 148, N-[2-(3,5-Difluoro-4-methoxy-benzyl)-2H-[1,2,3]triazol-4-yl]-2-[4-(3-fluoro-oxetan-3-yl)-phenyl]-acetamide], for which the negative-log IC50 (pIC50) is 7.46.

Turning to `COc1ccc(Cn2ncc(NC(=O)Cc3ccc(C4(OC)COC4)cc3)n2)cc1F` [Example 122, N-[2-(3-Fluoro-4-methoxy-benzyl)-2H-[1,2,3]triazol-4-yl]-2-[4-(3-methoxy-oxetan-3-yl)-phenyl]-acetamide], the negative logarithm of the IC50 (pIC50) was 6.44.

Regarding `COc1cc(Cn2ncc(NC(=O)Cc3ccc4c(c3)c(C)cn4C)n2)ccc1F` [Example 118, 2-(1,3-Dimethyl-1H-indol-5-yl)-N-[2-(4-fluoro-3-methoxy-benzyl)-2H-[1,2,3]triazol-4-yl]-acetamide], the negative logarithm of the IC50 (pIC50) is 7.20.

Take `CC(C)(c1ccc(CC(=O)Nc2cnn(Cc3ccc(C#N)c(F)c3)n2)cc1)C(F)(F)F` [Example 249, N-[2-(4-Cyano-3-fluoro-benzyl)-2H-[1,2,3]triazol-4-yl]-2-[4-(2,2,2-trifluoro-1,1-dimethyl-ethyl)-phenyl]-acetamide]: the negative-log IC50 (pIC50) was 7.04.

`COc1ccc(Cn2ncc(NC(=O)Cc3ccc(N4CCC(F)(F)C4)nc3)n2)cc1` [Example 59]: the pIC50 is 7.22.

Consider `Cn1ccc2cc(CC(=O)Nc3cnn(Cc4ccc(C#N)cc4)n3)ccc21` [Example 99, N-[2-(4-Cyano-benzyl)-2H-[1,2,3]triazol-4-yl]-2-(1-methyl-1H-indol-5-yl)-acetamide], for which the negative logarithm of the IC50 (pIC50) was 7.72.

Consider `Cn1nc(C2CC2)c2cc(CC(=O)Nc3cnn(Cc4ccc(F)c(F)c4)n3)ccc21` [Example 35, 2-(3-Cyclopropyl-1-methyl-1H-indazol-5-yl)-N-[2-(3,4-difluoro-benzyl)-2H-[1,2,3]triazol-4-yl]-acetamide], for which the negative-log IC50 (pIC50) is 7.54.

`Cn1ncc2cc(CC(=O)Nc3cnn(Cc4ccc(F)c(C#N)c4)n3)ccc21` [Example 173, N-[2-(3-Cyano-4-fluoro-benzyl)-2H-[1,2,3]triazol-4-yl]-2-(1-methyl-1H-indazol-5-yl)-acetamide]: the negative logarithm of the IC50 (pIC50) is 6.82.

Take `CC(C)(C)c1ccc(CC(=O)Nc2cnn(Cc3ccc(C#N)c(F)c3)n2)cc1` [Example 73, 2-(4-tert-Butyl-phenyl)-N-[2-(4-cyano-3-fluoro-benzyl)-2H-[1,2,3]triazol-4-yl]-acetamide]: the pIC50 was 7.43.
